Measurements from patent US20220401564A1 (DANA-FARBER CANCER INSTITUTE, INC., priority 2019, published 2022).

Tests used:
Test in all cases: HDAC enzymatic assay (Reaction Biology), Class 2A substrate
Format in all cases: biochemical
HDAC9 = biological target: T1, HDAC9 (Homo sapiens, UniProt Q9UKV0); details: 10-dose response curve; read-out: Compound IC50 (M), HDAC9
T1 construct: purchased Reaction Biology
Experimental: (§1) Compounds 2 and 9 were tested in an enzymatic assay from Reaction Biology® against HDAC isoforms.
(§2) Base Reaction buffer: 50 mM Tris-HCl, pH8.0, 137 mM NaCl, 2.7 mM KCl, and 1 mM MgCl2. Add fresh: 1 mg/ml BSA, 1% DMSO
(§3) Class 2A Substrate (HDAC4, HDAC5, HDAC7, and HDAC9): Boc-Lys(trifluoroacetyl)-AMC
(§4) 1. Delivered 2X enzyme in wells of reaction plate except in the control wells and added buffer to control wells. 2. Delivered compounds in 100% DMSO into the enzyme mixture by Acoustic technology (Echo550; nanoliter range). Spin down and pre-incubation. 3. Delivered 2X Substrate Mixture (Fluorogenic HDAC Substrate and co-factor if applicable) in all reaction wells to initiate the reaction. Spin and shake. 4. Incubated for 30 min for Class 2A, 1 h for HDAC1, 2, 3, and 6, and 2 h for the rest of HDAC isoforms and SIRTs at 30° C. with seal.
(§5) 5. Added Developer with Trichostatin A (or Nicotinamide for SIRTs) to stop the reaction and to generate fluorescent color. 6. The fluorescence that was generated was detected with excitation (Ex) at […] and emission (Em) at 460 nM by the EnVision Multilabel Plate Reader (PerkinElmer®, Santa Clara, Calif., USA).
(§6) IC50 values were derived from a 10-dose response curve. As shown in Tables 1-2, the addition of a linker and CRBN targeting group altered the isoform selectivity of the SAHA-based degrader compounds.

HDAC7 = biological target: T2, HDAC7 (Homo sapiens, UniProt Q8WUI4); details: 10-dose response curve; read-out: Compound IC50 (M), HDAC7
T2 construct: purchased Reaction Biology
T2 sequence (Q8WUI4 1-952): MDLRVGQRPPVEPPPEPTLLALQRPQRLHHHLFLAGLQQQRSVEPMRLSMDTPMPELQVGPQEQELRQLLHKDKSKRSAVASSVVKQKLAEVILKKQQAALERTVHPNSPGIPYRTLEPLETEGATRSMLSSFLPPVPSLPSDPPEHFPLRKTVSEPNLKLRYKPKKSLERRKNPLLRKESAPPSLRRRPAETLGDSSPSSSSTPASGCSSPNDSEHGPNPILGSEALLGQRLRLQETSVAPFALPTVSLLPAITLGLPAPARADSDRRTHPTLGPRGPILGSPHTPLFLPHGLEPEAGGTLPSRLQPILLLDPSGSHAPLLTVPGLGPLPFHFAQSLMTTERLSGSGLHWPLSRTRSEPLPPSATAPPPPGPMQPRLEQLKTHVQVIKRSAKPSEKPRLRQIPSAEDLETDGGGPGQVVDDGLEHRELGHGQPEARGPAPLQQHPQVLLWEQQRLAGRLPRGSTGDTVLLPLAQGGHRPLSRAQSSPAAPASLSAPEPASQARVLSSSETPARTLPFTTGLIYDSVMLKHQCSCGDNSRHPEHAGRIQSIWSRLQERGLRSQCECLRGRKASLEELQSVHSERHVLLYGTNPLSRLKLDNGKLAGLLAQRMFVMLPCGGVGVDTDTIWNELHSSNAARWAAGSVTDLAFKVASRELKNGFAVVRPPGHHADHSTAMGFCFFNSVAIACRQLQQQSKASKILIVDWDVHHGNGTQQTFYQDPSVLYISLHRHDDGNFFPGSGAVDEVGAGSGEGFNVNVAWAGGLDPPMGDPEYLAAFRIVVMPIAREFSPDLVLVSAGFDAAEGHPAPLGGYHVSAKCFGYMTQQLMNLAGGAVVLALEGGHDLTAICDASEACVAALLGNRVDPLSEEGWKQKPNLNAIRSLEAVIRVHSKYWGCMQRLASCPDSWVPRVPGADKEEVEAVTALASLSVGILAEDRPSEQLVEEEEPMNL
Experimental: as §1, §2, §3, §4, §5, §6

HDAC4 = biological target: T3, HDAC4 (Homo sapiens, UniProt P56524); details: 10-dose response curve; read-out: Compound IC50 (M), HDAC4
T3 construct: purchased Reaction Biology
Experimental: as §1, §2, §3, §4, §5, §6

T3 sequence (P56524 whole entry): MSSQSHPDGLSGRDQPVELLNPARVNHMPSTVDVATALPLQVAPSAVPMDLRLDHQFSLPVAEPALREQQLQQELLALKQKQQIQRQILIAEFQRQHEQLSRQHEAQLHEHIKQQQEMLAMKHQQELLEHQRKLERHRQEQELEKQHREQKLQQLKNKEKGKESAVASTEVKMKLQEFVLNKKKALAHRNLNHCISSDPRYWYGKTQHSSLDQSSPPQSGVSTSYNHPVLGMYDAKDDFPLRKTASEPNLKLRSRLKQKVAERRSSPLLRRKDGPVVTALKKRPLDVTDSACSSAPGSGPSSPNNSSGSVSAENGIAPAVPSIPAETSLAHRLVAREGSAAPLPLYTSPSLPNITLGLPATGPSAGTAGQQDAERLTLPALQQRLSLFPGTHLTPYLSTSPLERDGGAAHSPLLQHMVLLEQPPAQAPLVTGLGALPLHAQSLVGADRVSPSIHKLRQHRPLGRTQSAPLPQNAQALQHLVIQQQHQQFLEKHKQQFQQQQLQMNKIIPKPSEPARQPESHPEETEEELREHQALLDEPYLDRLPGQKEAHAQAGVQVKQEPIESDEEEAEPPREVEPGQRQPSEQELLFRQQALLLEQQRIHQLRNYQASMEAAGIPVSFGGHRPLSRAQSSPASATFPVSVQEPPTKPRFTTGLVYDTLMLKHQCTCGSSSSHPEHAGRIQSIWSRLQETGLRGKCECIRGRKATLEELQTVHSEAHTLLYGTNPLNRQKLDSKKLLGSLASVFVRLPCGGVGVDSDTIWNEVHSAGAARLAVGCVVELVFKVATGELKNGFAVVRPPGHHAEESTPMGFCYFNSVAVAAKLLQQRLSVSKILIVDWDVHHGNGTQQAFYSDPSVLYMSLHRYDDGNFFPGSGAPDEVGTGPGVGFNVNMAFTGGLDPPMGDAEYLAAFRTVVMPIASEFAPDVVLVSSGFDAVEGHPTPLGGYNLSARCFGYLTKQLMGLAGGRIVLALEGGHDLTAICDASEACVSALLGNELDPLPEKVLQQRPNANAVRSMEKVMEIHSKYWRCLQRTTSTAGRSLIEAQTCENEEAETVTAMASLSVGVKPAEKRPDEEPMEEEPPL
T1 sequence (Q9UKV0 whole entry): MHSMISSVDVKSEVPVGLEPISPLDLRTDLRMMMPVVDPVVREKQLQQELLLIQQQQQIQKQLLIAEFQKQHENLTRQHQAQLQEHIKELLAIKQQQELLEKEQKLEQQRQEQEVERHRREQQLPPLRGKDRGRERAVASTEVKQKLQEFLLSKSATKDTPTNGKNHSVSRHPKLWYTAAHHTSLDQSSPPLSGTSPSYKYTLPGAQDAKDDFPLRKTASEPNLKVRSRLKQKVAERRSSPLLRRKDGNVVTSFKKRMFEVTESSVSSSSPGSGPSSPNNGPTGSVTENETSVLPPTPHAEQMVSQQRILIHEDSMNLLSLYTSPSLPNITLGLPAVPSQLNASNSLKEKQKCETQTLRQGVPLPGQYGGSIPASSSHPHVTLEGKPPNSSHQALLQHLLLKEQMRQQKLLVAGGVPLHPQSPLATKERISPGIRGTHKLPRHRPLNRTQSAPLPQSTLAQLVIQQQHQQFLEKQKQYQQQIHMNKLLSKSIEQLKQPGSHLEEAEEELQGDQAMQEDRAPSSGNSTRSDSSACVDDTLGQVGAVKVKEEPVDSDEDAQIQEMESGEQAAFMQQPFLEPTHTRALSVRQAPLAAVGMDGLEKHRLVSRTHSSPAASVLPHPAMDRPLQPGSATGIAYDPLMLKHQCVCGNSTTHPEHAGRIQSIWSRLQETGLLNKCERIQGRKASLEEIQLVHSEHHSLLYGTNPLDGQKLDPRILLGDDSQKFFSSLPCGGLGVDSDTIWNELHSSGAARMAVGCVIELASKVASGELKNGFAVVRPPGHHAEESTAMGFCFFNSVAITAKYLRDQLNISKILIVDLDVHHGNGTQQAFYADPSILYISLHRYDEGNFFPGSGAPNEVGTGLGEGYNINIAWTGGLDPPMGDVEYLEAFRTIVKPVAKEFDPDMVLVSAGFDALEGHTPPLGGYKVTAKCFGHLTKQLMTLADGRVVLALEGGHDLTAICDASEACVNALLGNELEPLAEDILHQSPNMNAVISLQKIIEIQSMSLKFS

IC50 (HDAC9): > 2e-05 M
IC50 (HDAC7): 1.71e-05 M
IC50 (HDAC4): 1.31e-05 M
SMILES: Cc1ncsc1-c1ccc([C@H](C)NC(=O)[C@@H]2C[C@@H](O)CN2C(=O)[C@@H](NC(=O)CCOCCOCCN(CCc2c[nH]c3ccccc23)Cc2ccc(/C=C/C(=O)NO)cc2)C(C)(C)C)cc1 [Compound 2, (2S,4R)-1-((S)-14-(tert-butyl)-3-(4-((E)-3-(hydroxyamino)-3-oxoprop-1-en-1-yl)benzyl)-1-(1H-indol-3-yl)-12-oxo-6,9-dioxa-3,13-diazapentadecan-15-oyl)-4-hydroxy-N—((S)-1-(4-(4-methylthiazol-5-yl)phenyl)ethyl)pyrrolidine-2-carboxamide]
